{"source": "patent US9321782B2", "about": "“Process for preparation of novel 42-O-(heteroalkoxyalkyl) rapamicin compounds with anti-proliferative properties” (MERIL LIFE SCIENCES PVT. LTD., priority 2010, dated 2016)", "key": {"[1]": {"test": "Stability analysis (HPLC purity on storage) with various concentrations of BHT at 40° C.", "type": "physicochemical", "settings": "sealed container", "method": "(§1) To check the purity of the 42-O-(heteroalkoxyalkyl) rapamycin compounds the following condition was followed by using High Performance Liquid Chromatography, Phenomenex Synergi Hydro-RP 80a (250×4.6 ) mm, 4 micron column. The mobile phase was 65:15:20 methanol:acetonitile:water mixture. The detector was set at 276 nm and the flow rate was adjusted to 1.5 mL/min. Column temperature was 40° C. 2.0 μg of 42-O-(heteroalkoxyalkyl) rapamycin compounds was injected onto the column in a volume of 5.0 μL methanol with run time of 50 min.\nThe inventors have also conducted the stability study of various 42-O-(heteroalkoxyalkyl) rapamycin compounds as mentioned above using various BHT concentrations. The study was conducted at 40° C. temperature in sealed container for 8 weeks.\n42-O-(heteroalkoxyalkyl) rapamycin compounds obtained as per procedure described in Example 1 are respectively added with anti-oxidant, namely Butylated Hydroxytoluene (or BHT), at a concentration of 0.1%, 0.2%, 0.5%, and 1.0% (w/w) based on 100% (w/w) of 42-O-(heteroalkoxyalkyl) rapamycin compounds in sealed container to study the stability at 40° C. temperature. […] The purity data with the addition of different amounts of anti-oxidant as added to 42-O-(tetrahydrofuran-3-yl) rapamycin compound, 42-O-(oxetan-3-yl) rapamycin compound and 42-O-(tetrahydropyran-3-yl) rapamycin compound checked at different time intervals are summarized in Table 2B as below mentioned."}, "[2]": {"system": "rabbit illiac artery smooth muscle cell cultures (RbIASMCs)", "test": "In-vitro anti-proliferative potency, BrdU assay, rabbit smooth muscle cells", "type": "cell-based", "settings": "BrdU incorporation, over 5 orders of magnitude concentration, compared with rapamycin", "description": "(§2) In-vitro assessment of relative anti-proliferative effect of novel mTOR inhibitors 42-O-(oxetan-3-yl) rapamycin compound and 42-O-(tetrahydrofuran-3-yl) rapamycin compound with rapamycin was done on human and rabbit smooth muscle cell culture models. In which, human aorta and rabbit illiac artery smooth muscle cell cultures were subjected to increasing doses of 42-O-(oxetan-3-yl) rapamycin compound 42-O-(tetrahydrofuran-3-yl) rapamycin compound and rapamycin over 5 orders of magnitude concentration in the cell culture medium. The ability of the cell culture to reproduce was assessed after drug exposure by addition of a BromodeoxyUridine (BrdU) coloured reagent which causes a colour change in the surviving cells. The extent of colour development was quantified at 450 nm wavelength using a spectrophotometer microplate reader (BMG Labtech, FLUOstar OPTIMA). […] On the contrary, lower OD values reflect less incorporation on BrdU and a shift towards cell inhibition. Growth inhibition was calculated by subtracting positive control OD values, which represent 100% uninhibited growth."}, "[3]": {"system": "rabbit blood", "test": "In-vitro haemolysis test", "type": "cell-based", "settings": "for Haemolytic Index, Mean ± S. D.: mean of three test extracts, rabbit blood, 4 hrs", "method": "Haemolysis test was conducted on rabbit blood by in-vitro method to check the haemolytic effect of 42-O-(tetrahydrofuran-3-yl) rapamycin (Merilimus-1) compound and 42-O-(oxetan-3-yl) rapamycin (Merilimus-2) compound. In this study the extracts of the test substances in triplicate were kept in contact with rabbit blood and incubated for 4 hrs. The concentration of plasma haemoglobin liberated in supernatant was calculated by comparing with absorbance of the standard solution in a spectrophotometer at 540 nm."}, "[4]": {"system": "L-929 (ATCC cell lines CCL-1, NCTC clone 929) Mus musculus mouse fibroblast cells", "test": "In-vitro cytotoxicity test by extraction method", "type": "cell-based", "settings": "extract in contact with L-929 cells for 48 hours", "method": "In-vitro assessment was done to check the cytotoxic or necrotic potential of the 42-O-(tetrahydrofuran-3-yl) rapamycin and 42-O-(oxetan-3-yl) rapamycin compounds by extraction method. In this study extracts of test substance were kept in contact with a multiple culture of L-929 (ATCC cell lines CCL-1, NCTC clone 929) Mus musculus mouse fibroblast cells for 48 hours. The cells were examined microscopically to assess the changes for its general morphology, vacuolization, detachment, cell lysis and membrane integrity."}, "[5]": {"system": "rabbit blood", "test": "Haemocompatibility test (thrombosis, coagulation, platelet count, leucocyte count)", "type": "cell-based", "method": "Haemocompatibility test is conducted to evaluate biological safety of the blood contacting 42-O-([…]) rapamycin and 42-O-(oxetan-3-yl) rapamycin compounds for the medical device. The interaction of test substance with rabbit blood was checked for thrombosis, coagulation, platelet count and leucocyte count."}, "[6]": {"test": "Stability analysis (HPLC purity on storage) without BHT at various temperatures", "type": "physicochemical", "settings": "for Purity (%): without BHT", "method": "as §1\nThe purity loss was higher at increased temperature, but there was no apparent change in the impurity profile. Table 2A presents the purity of various 42-O-(heteroalkoxyalkyl) rapamycin compounds at different time intervals and temperature conditions."}, "[7]": {"system": "human aorta smooth muscle cell cultures (hAoSMCs)", "test": "In-vitro anti-proliferative potency, BrdU assay, human smooth muscle cells", "type": "cell-based", "settings": "BrdU incorporation, over 5 orders of magnitude concentration, compared with rapamycin", "description": "as §2"}, "[8]": {"settings": "test group, individual rabbits No. 1-3"}}, "note": "Several values for one entry are separate records, joined by “and”; a condition that tells them apart may be missing. Identical values can stand only once."}
{"smiles": "COC1CC(C[C@H](C)[C@@H]2CC(=O)[C@H](C)/C=C(\\C)C(O)[C@@H](OC)C(=O)[C@H](C)C[C@H](C)/C=C/C=C/C=C(\\C)[C@@H](OC)C[C@@H]3CC[C@@H](C)[C@@](O)(O3)C(=O)C(=O)N3CCCC[C@H]3C(=O)O2)CCC1OC1COC1", "note": "(some centres unmarked) [Merilimus-2, 42-O-(oxetan-3-yl) rapamycin]", "values": [{"measurement": "Purity (%)", "setting": "[1]; BHT 0.0% (w/w), 0 week", "result": 97.3, "unit": "%"}, {"measurement": "Purity (%)", "setting": "[1]; BHT 0.0% (w/w), 2 weeks", "result": 95.5, "unit": "%"}, {"measurement": "Purity (%)", "setting": "[1]; BHT 0.0% (w/w), 4 weeks", "result": 94.6, "unit": "%"}, {"measurement": "Purity (%)", "setting": "[1]; BHT 0.0% (w/w), 8 weeks", "result": 93.6, "unit": "%"}, {"measurement": "Purity (%)", "setting": "[1]; BHT 0.1% (w/w), 0 week", "result": 97.7, "unit": "%"}, {"measurement": "Purity (%)", "setting": "[1]; BHT 0.1% (w/w), 2 weeks", "result": 97.5, "unit": "%"}, {"measurement": "Purity (%)", "setting": "[1]; BHT 0.1% (w/w), 4 weeks", "result": 97.5, "unit": "%"}, {"measurement": "Purity (%)", "setting": "[1]; BHT 0.1% (w/w), 8 weeks", "result": 97.5, "unit": "%"}, {"measurement": "Purity (%)", "setting": "[1]; BHT 0.2% (w/w), 0 week", "result": 97.6, "unit": "%"}, {"measurement": "Purity (%)", "setting": "[1]; BHT 0.2% (w/w), 2 weeks", "result": 97.6, "unit": "%"}, {"measurement": "Purity (%)", "setting": "[1]; BHT 0.2% (w/w), 4 weeks", "result": 97.5, "unit": "%"}, {"measurement": "Purity (%)", "setting": "[1]; BHT 0.2% (w/w), 8 weeks", "result": 97.5, "unit": "%"}, {"measurement": "Purity (%)", "setting": "[1]; BHT 0.5% (w/w), 0 week", "result": 97.6, "unit": "%"}, {"measurement": "Purity (%)", "setting": "[1]; BHT 0.5% (w/w), 2 weeks", "result": 97.5, "unit": "%"}, {"measurement": "Purity (%)", "setting": "[1]; BHT 0.5% (w/w), 4 weeks", "result": 97.4, "unit": "%"}, {"measurement": "Purity (%)", "setting": "[1]; BHT 0.5% (w/w), 8 weeks", "result": 97.4, "unit": "%"}, {"measurement": "Purity (%)", "setting": "[1]; BHT 1.0% (w/w), 0 week", "result": 97.6, "unit": "%"}, {"measurement": "Purity (%)", "setting": "[1]; BHT 1.0% (w/w), 2 weeks", "result": 97.5, "unit": "%"}, {"measurement": "Purity (%)", "setting": "[1]; BHT 1.0% (w/w), 4 weeks", "result": 97.4, "unit": "%"}, {"measurement": "Purity (%)", "setting": "[1]; BHT 1.0% (w/w), 8 weeks", "result": 97.4, "unit": "%"}, {"measurement": "Purity after eight-weeks of storage", "setting": "[1]; with various concentrations of BHT (concentration not given)", "result": 97.4, "unit": "%"}, {"measurement": "Growth suppression of smooth muscle cells (in words)", "setting": "[2]", "result": "more effectively inhibited growth of smooth muscle cells than rapamycin"}, {"measurement": "Haemolytic Index", "setting": "[3]; individual test extracts 1-3, rabbit blood, incubated 4 hrs, = Haemoglobin released/Haemoglobin present × 100", "result": "1.9 (2×) and 2.0"}, {"measurement": "Haemolytic Index, Mean ± S. D.", "setting": "[3]", "result": "1.9 ± 0.02"}, {"measurement": "Haemolytic Index, Mean ± S. D.", "setting": "[3]; listed as 42-O-(oxetan-3-yl) rapamycin", "result": 1.9}, {"measurement": "Haemolytic nature (in words)", "setting": "[3]; on the basis of haemolytic index", "result": "non-haemolytic"}, {"measurement": "Toxic effect on cells (in words)", "setting": "[4]", "result": "did not reveal any toxic effect on cells"}, {"measurement": "Haemocompatibility (in words)", "setting": "[5]; all haematological findings compared to control", "result": "haemocompatible"}, {"measurement": "Coagulation (PTT in sec.)", "setting": "[5]; [8]", "result": "36 sec. (2×) and 38 sec."}, {"measurement": "Differential leucocyte count: Basophile %", "setting": "[5]; [8]", "result": "00", "unit": "%"}, {"measurement": "Differential leucocyte count: Eosinophil %", "setting": "[5]; [8]", "result": "02% (2×) and 01%"}, {"measurement": "Differential leucocyte count: Lymphocyte %", "setting": "[5]; [8]", "result": "44% and 50% and 49%"}, {"measurement": "Differential leucocyte count: Monocyte %", "setting": "[5]; [8]", "result": "01", "unit": "%"}, {"measurement": "Differential leucocyte count: Neutrophil %", "setting": "[5]; [8]", "result": "55% and 48% (2×)"}, {"measurement": "Distribution of cells: Platelets", "setting": "[5]; [8]", "result": "Normal"}, {"measurement": "Distribution of cells: RBC", "setting": "[5]; [8]", "result": "Normal"}, {"measurement": "Distribution of cells: WBC", "setting": "[5]; [8]", "result": "Normal"}, {"measurement": "Leucocyte count", "setting": "[5]; [8]", "result": "7.5 Thousand/cmm (2×) and 6.5 Thousand/cmm"}, {"measurement": "Platelet count", "setting": "[5]; [8]", "result": "4.9 lakhs/cmm and 4.5 lakhs/cmm (2×)"}, {"measurement": "Thrombosis", "setting": "[5]; [8]", "result": "Nil"}, {"measurement": "Stability (in words)", "setting": "[6]; purified compounds without anti-oxidant", "result": "more thermally stable"}, {"measurement": "Purity (%)", "setting": "[6]; 5° C. (sealed), 00 weeks after synthesis", "result": 97.7, "unit": "%"}, {"measurement": "Purity (%)", "setting": "[6]; 5° C. (sealed), 02 weeks after synthesis", "result": 96.5, "unit": "%"}, {"measurement": "Purity (%)", "setting": "[6]; 5° C. (sealed), 04 weeks after synthesis", "result": 95.6, "unit": "%"}, {"measurement": "Purity (%)", "setting": "[6]; 5° C. (sealed), 08 weeks after synthesis", "result": 94.8, "unit": "%"}, {"measurement": "Purity (%)", "setting": "[6]; 5° C. (sealed), 12 weeks after synthesis", "result": 94.2, "unit": "%"}, {"measurement": "Purity (%)", "setting": "[6]; 25° C. (sealed), 00 weeks after synthesis", "result": 97.6, "unit": "%"}, {"measurement": "Purity (%)", "setting": "[6]; 25° C. (sealed), 02 weeks after synthesis", "result": 96.2, "unit": "%"}, {"measurement": "Purity (%)", "setting": "[6]; 25° C. (sealed), 04 weeks after synthesis", "result": 95.1, "unit": "%"}, {"measurement": "Purity (%)", "setting": "[6]; 25° C. (sealed), 08 weeks after synthesis", "result": 94.5, "unit": "%"}, {"measurement": "Purity (%)", "setting": "[6]; 25° C. (sealed), 12 weeks after synthesis", "result": 93.9, "unit": "%"}, {"measurement": "Purity (%)", "setting": "[6]; 25° C. (unsealed), 00 weeks after synthesis", "result": 97.3, "unit": "%"}, {"measurement": "Purity (%)", "setting": "[6]; 25° C. (unsealed), 02 weeks after synthesis", "result": 95.9, "unit": "%"}, {"measurement": "Purity (%)", "setting": "[6]; 25° C. (unsealed), 04 weeks after synthesis", "result": 94.8, "unit": "%"}, {"measurement": "Purity (%)", "setting": "[6]; 25° C. (unsealed), 08 weeks after synthesis", "result": 94.0, "unit": "%"}, {"measurement": "Purity (%)", "setting": "[6]; 25° C. (unsealed), 12 weeks after synthesis", "result": 93.6, "unit": "%"}, {"measurement": "Purity (%)", "setting": "[6]; 40° C. (sealed), 00 weeks after synthesis", "result": 97.3, "unit": "%"}, {"measurement": "Purity (%)", "setting": "[6]; 40° C. (sealed), 02 weeks after synthesis", "result": 95.5, "unit": "%"}, {"measurement": "Purity (%)", "setting": "[6]; 40° C. (sealed), 04 weeks after synthesis", "result": 94.6, "unit": "%"}, {"measurement": "Purity (%)", "setting": "[6]; 40° C. (sealed), 08 weeks after synthesis", "result": 93.6, "unit": "%"}, {"measurement": "Purity (%)", "setting": "[6]; 40° C. (sealed), 12 weeks after synthesis", "result": 92.7, "unit": "%"}, {"measurement": "Growth suppression of smooth muscle cells (in words)", "setting": "[7]", "result": "more effectively inhibited growth of smooth muscle cells than rapamycin"}]}
